In this assay the test system is human thrombocytes (platelets). The experiment in a line: ADP-induced platelet aggregation in whole blood, impedance aggregometry (Multiplate Analyzer). Type of assay: cell-based. The following applies: ADP 10 μM final; two-minute pre-incubation of the metabolite in blood of an apparently healthy subject; final metabolite concentration 0.31 mg per 1 mL; approx. 73% purity; FIG. 2. How it is done:
Example of embodiment of the effect of a metabolite produced via peroxygenase on human platelets (blood platelets).
The metabolite is present as a powder (approx. 4 mg) in a dark container and is stored in a freezer at at least −80° C. until the solution is prepared. On the day of use, the drug is dissolved in 500 μl of a suitable sterile solvent (here: phosphate-buffered saline, PBS). Powder and solvent are mixed rigorously. The complete dissolution of the powder is to be visually checked. The mixture is stored on ice or at approx. 0° C. until use.
To test the functionality of the agent, the aggregation of human thrombocytes (platelets) in whole blood is determined by impedance aggregometry (Paniccia, R.; Antonucci, E.; Maggini, N.; Romano, E.; Gori, A. M.; Marcucci, R.; Prisco, D.; Abbate, R. Assessment of Platelet Function on Whole Blood by Multiple Electrode Aggregometry in High-Risk Patients with Coronary Artery Disease Receiving Antiplatelet Therapy. American journal of clinical pathology 2009, 131, 834-42, doi:10.1309/AJCPTE3K1SGAPOIZ). For the test, approximately 5 ml of fresh whole blood is collected from a visible vein at the elbow (cubital vein) of a subject by an appropriately trained person using appropriate sterile blood collection equipment. The blood is collected into a collection vessel designed for this purpose (e.g. Sarstedt Monovette, Sarstedt, Numbrecht, Germany). […]

SMILES strings stand for the structures.

On to `COC(=O)[C@H](c1ccccc1Cl)N1CCC(S)C(=CC(=O)O)C1` (stereo partly drawn) [metabolite, 2-(1-((S)-1-(2-chlorophenyl)-2-methoxy-2-oxoethyl)-4-mercaptopiperidin-3-ylidene)acetic acid], for which the ADP-induced platelet aggregation entry is given as “reduction of ADP-induced platelet aggregation”.

The values are drawn from US20240207369A1, “In Vitro Drugs from Prodrugs and Use Thereof” (Brandenburgische Tehnische Universitat Cottbus-Senftenberg, priority 2021, published 2024).
